From PMC9848385, “Design, synthesis, molecular modelling and antitumor evaluation of S-glucosylated rhodanines through topo II inhibition and DNA intercalation” (Journal of Enzyme Inhibition and Medicinal Chemistry, 2023)
“And” between values parts separate entries of the source, which are not always exact repeats. Equal entries are not always repeated.

Tests used:
MCF-7 cells = assay: MTT cytotoxicity assay, MCF-7; assay type: cell-based; conditions: Homo sapiens, MCF7, 48 h, read-out: Cytotoxic IC50 MCF-7
Experimental: (§3) Using RPMI-1640 medium L-Glutamine (Lonza Verviers SPRL, Belgium, cat#12-604F), we successfully cultured liver (HepG2), breast (MCF-7), and lung (A549) cells bought from the National Research Institute, Egypt. Each culture was supplemented with 10% foetal bovine serum (FBS, Sigma-Aldrich, MO, USA) and 1% penicillin-streptomycin (Lonza, Belgium). Using a 96-well plate, cells were seeded at a density of 5,000 cells per well in triplicate. The chemicals were added to the cells on day 2 at doses of (0.01, 0.1, 1, 10, and 100 M). To determine cell viability, MTT solution was used after 48 h (Promega, USA)[84]. Using GraphPad Prism 7, as was previously reported in, we computed the survival rate in comparison to the control and obtained the IC50 values[85].

A549 cells = assay: MTT cytotoxicity assay, A549; assay type: cell-based; conditions: Homo sapiens, A549, 48 h, read-out: Cytotoxic IC50 A549
Experimental: as §3

HepG2 cells [1] = assay: MTT cytotoxicity assay, HepG2; assay type: cell-based; conditions: Homo sapiens, HepG2, 48 h, read-out: Cytotoxic IC50 HepG2
Experimental: as §3

HepG2 cells [2] = assay: DNA content flow cytometry cell cycle analysis; assay type: cell-based; conditions: IC50 concentration, 48 h, control 39.15%
HepG2 cells [3] = assay: Annexin V/PI staining flow cytometry (apoptosis); assay type: cell-based; conditions: IC50 concentration, 48 h
Experimental: After incubation overnight, 6-well culture plates were populated with HepG2 cells (3–5 10^5 cells/well). […] Cells and medium supernatants were then collected and washed in ice-cold PBS. The next step was suspending the cells in 100 µL of annexin binding buffer solution "25 mM CaCl2, 1.4 M NaCl, and 0.1 M Hepes/NaOH, pH 7.4” and incubation with “Annexin V-FITC solution (1:100) and propidium iodide (PI)” at a concentration equals 10 µg/mL in the dark for 30 min. The Cytoflex FACS system was then used to acquire the stained cells. cytExpert was used for the statistical analysis.

Bax = assay: RT-PCR gene expression, Bax; assay type: cell-based; conditions: HepG2 cells, IC50, 48 h; normalized to β-actin; untreated = 1
Experimental: (§1) The gene expression of P53, Bax, Caspasses-3,8,9 as proapoptotic genes and Bcl-2 as an anti-apoptotic gene were evaluated to investigate the apoptotic pathway. […] Afterwards, the standard operating procedure called for an RT-PCR reaction to be performed. The Ct values were then used to determine the relative expression of each gene in each sample, normalised to the β-actin as house-keeping gene[90–92].

P53 = assay: RT-PCR gene expression, P53; assay type: cell-based; conditions: HepG2 cells, IC50, 48 h; normalized to β-actin; untreated = 1
Experimental: as §1

Casp-3 = assay: RT-PCR gene expression, Casp-3; assay type: cell-based; conditions: HepG2 cells, IC50, 48 h; normalized to β-actin; untreated = 1
Experimental: as §1

Bcl-2 = assay: RT-PCR gene expression, Bcl-2; assay type: cell-based; conditions: HepG2 cells, IC50, 48 h; normalized to β-actin; untreated = 1
Experimental: as §1

Casp-9 = assay: RT-PCR gene expression, Casp-9; assay type: cell-based; conditions: HepG2 cells, IC50, 48 h; normalized to β-actin; untreated = 1
Experimental: as §1

Topoisomerase II = biological target: T1, Topoisomerase II (Homo sapiens, UniProt P11388); assay: Topoisomerase II inhibition assay; assay type: biochemical; conditions: average of three independent replicates, five concentrations
T1 construct: purchased TopoGEN, Inc., Columbus
Experimental: (§2) Topoisomerase II (TopoGEN, Inc., Columbus) and DNA intercalator (methyl green (20 mg) and Calfthymus DNA (10 mg) were tested for their capacity to block the enzyme’s activity. Following equation was used to determine compound inhibition percentages: 100−[A control/A treated−Control)], IC50 was determined using GraphPad prism7 using inhibition curves at five different concentrations of each compound[86].

Casp-8 = assay: RT-PCR gene expression, Casp-8; assay type: cell-based; conditions: HepG2 cells, IC50, 48 h; normalized to β-actin; untreated = 1
Experimental: as §1

Calfthymus DNA = assay: DNA intercalation assay (DNA/methyl green); assay type: binding, calf; conditions: average of three independent replicates, five concentrations
Experimental: as §2

[4] = MTT cytotoxicity assay, MCF-7; assay type: cell-based; conditions: human, MCF-7 breast cells, read-out: Cytotoxic IC50 MCF-7
Experimental: as §3

[5] = MTT cytotoxicity assay, A549; assay type: cell-based; conditions: human, A549 lung cells, read-out: Cytotoxic IC50 A549
Experimental: as §3

[6] = MTT cytotoxicity assay, HepG2; assay type: cell-based; conditions: human, HepG2 liver cells, read-out: Cytotoxic IC50 HepG2
Experimental: as §3

T1 sequence (P11388 whole entry): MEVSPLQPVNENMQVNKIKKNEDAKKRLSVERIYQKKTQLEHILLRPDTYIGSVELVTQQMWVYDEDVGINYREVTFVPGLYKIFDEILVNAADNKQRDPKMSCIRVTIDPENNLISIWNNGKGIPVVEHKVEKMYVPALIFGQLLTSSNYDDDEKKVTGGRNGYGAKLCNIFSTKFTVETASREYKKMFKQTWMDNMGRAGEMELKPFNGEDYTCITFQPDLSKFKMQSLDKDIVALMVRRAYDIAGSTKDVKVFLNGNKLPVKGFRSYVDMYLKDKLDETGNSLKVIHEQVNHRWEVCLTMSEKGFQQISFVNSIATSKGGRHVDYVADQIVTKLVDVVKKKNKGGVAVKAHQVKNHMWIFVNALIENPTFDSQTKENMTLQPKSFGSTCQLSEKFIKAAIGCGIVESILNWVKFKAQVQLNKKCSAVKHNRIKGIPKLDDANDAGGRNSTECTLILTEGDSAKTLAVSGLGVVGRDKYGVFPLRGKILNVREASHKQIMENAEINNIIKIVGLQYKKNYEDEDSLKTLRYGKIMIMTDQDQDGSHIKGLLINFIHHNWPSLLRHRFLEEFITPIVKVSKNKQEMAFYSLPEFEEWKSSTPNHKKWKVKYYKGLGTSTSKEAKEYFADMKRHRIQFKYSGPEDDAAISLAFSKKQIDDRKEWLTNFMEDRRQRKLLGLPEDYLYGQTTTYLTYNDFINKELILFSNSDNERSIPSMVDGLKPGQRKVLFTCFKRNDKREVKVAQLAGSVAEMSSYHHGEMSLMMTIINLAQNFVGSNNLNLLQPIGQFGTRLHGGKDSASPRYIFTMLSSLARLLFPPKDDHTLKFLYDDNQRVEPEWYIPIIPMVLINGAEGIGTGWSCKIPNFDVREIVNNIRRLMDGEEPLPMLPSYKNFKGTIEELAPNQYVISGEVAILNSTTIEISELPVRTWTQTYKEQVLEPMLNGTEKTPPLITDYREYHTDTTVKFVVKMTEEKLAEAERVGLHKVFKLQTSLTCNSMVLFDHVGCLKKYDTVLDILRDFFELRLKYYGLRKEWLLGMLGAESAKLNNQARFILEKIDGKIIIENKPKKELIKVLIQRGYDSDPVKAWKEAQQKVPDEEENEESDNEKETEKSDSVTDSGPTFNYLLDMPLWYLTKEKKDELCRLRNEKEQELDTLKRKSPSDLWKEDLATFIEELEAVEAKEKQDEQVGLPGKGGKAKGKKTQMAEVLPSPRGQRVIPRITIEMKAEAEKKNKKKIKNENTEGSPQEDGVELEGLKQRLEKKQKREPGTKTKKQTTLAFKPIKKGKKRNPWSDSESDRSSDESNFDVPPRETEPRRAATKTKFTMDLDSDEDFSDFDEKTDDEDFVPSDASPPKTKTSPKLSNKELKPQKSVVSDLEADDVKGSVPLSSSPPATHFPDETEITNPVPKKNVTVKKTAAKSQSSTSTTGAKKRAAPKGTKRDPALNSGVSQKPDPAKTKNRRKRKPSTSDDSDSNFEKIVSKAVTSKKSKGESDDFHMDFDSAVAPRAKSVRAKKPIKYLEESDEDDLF

Structure (SMILES)	IC50 (MCF-7 cells)	IC50 (A549 cells)	IC50 (HepG2 cells [1])	melting point	also measured
O=C1NC(=S)S/C1=C\c1ccc(Cl)cc1Cl [Compound 3b, 5-((Z)-2,4-dichlorobenzylidene)-2-thioxo-4-thiazolidinone]	17.9 µM	9.7 µM	7.8 µM	–	–
O=C1NC(=S)S/C1=C\c1ccc2c(c1)OCCO2 [Compound 3c, 5-((Z)-3,4-ethylenedioxybenzylidene)-2-thioxo-4-thiazolidinone]	7.1 µM	13.7 µM	11.7 µM	208 to 210 °C	–
COc1ccc(/C=C2\SC(=S)NC2=O)cc1 [Compound 3d, 5-((Z)-4-methoxybenzylidene)-2-thioxo-4-thiazolidinone]	15.1 µM	7.8 µM	18.1 µM	–	–
COc1cccc(/C=C2\SC(=S)NC2=O)c1O [Compound 3e]	3.1 µM	7.7 µM	16.3 µM	199 to 201 °C	–
O=C1NC(=S)S/C1=C\c1ccc2c(c1)OCO2 [Compound 3f, 5-((Z)-3,4-methylenedioxybenzylidene)-2-thioxo-4-thiazolidinone]	12.8 µM	21.1 µM	8.9 µM	–	–
CC(=O)OC[C@H]1O[C@@H](N2C(=O)CSC2=S)[C@H](OC(C)=O)[C@@H](OC(C)=O)[C@@H]1OC(C)=O [Compound 6, 3-(2',3',4',6'-Tetra-O-acetyl-β-D-glucopyranosyl)-2-thioxo-4-thiazolidinone]	11.7 µM	1.7 µM	0.21 µM	–	Cell population at S-phase (HepG2 cells [2]): 49.6%; Activation of apoptotic cell death versus untreated control (HepG2 cells [3]): 80.7 fold; Early apoptosis (AV+/PI-) (HepG2 cells [3]): 23.07%; Late apoptosis (AV+/PI+) (HepG2 cells [3]): 11.66%; Total apoptosis (HepG2 cells [3]; untreated control 0.43%): 34.73%; Fold Change = 2^-ΔΔCT Bax (Bax): 5.7 fold and 5.7 ± 0.26 fold; Fold Change = 2^-ΔΔCT P53 (P53): 6.16 fold and 6.16 ± 0.69 fold; Fold Change = 2^-ΔΔCT Casp-3 (Casp-3): 8.3 fold and 8.3 ± 0.37 fold; Fold Change = 2^-ΔΔCT Bcl-2 (Bcl-2): 0.36 fold and 0.36 ± 0.01 fold; Fold Change = 2^-ΔΔCT Casp-9 (Casp-9): 6.14 fold and 6.14 ± 0.19 fold; IC50 (Topoisomerase II): 6.9 µM; Fold Change = 2^-ΔΔCT Casp-8 (Casp-8): 3.29 fold and 3.29 ± 0.5 fold; IC50 (Calfthymus DNA): 19.6 µM
CC(=O)OC[C@H]1O[C@@H](SC2=NC(=O)CS2)[C@H](OC(C)=O)[C@@H](OC(C)=O)[C@@H]1OC(C)=O [Compound 7]	–	–	–	–	IC50 at 48 h [4]: 12.4 µM; IC50 at 48 h [5]: 0.31 µM; IC50 (Topoisomerase II): 9.1 µM; IC50 (Calfthymus DNA): 29.6 µM; IC50 at 48 h [6]: 0.76 µM
O=C1CSC(=S)N1CN1CCOCC1 [Compound 10, 3-morpholinomethyl-2-thioxo-4-thiazolidinone]	–	36.4 µM	–	–	–
CSC1NC(=O)CS1 (stereo not shown) [Compound 11, 2-methylmercapto-4-thiazolidinone]	–	–	–	72 to 74 °C	–
CC(=O)OCC1OC(SC2=NC(=O)C(=Cc3ccccc3)S2)C(OC(C)=O)C(OC(C)=O)C1OC(C)=O [Compound 13a, 5-((Z)-benzylidene)-2–(2',3',4',6'-tetra-O-acetyl-β-D-glucopyranosyl)-2-thioxo-4-thiazolidinone]	3.1 µM	6.1 µM	17.2 µM	166 to 168 °C	IC50 (Topoisomerase II): 8.3 µM; IC50 (Calfthymus DNA): 22.6 µM
CC(=O)OCC1OC(SC2=NC(=O)C(=Cc3ccc(Cl)cc3Cl)S2)C(OC(C)=O)C(OC(C)=O)C1OC(C)=O [Compound 13b, 5-((Z)-2,4-dichlorobenzylidene)-2–(2',3',4',6'-tetra-O-acetyl-β-D-glucopyranosyl)-2-thioxo-4-thiazolidinone]	13.1 µM	10.1 µM	7.2 µM	167 to 169 °C	–
CC(=O)OC[C@H]1O[C@@H](SC2=NC(=O)/C(=C/c3ccc4c(c3)OCCO4)S2)[C@H](OC(C)=O)[C@@H](OC(C)=O)[C@@H]1OC(C)=O [Compound 13c, 5-((Z)-2,4-ethylenedioxybenzylidene)-2–(2',3',4',6'-tetra-O-acetyl-β-D-glucopyranosyl)-2-thioxo-4-thiazolidinone]	–	4.1 µM	21.2 µM	–	–
O=C1NC(=O)/C(=C/c2ccc(Cl)cc2Cl)S1 [Compound 14, 5-((Z)-2,4-dichlorobenzylidene)-2,4-thiazolidindione]	42.2 µM	31.6 µM	37.3 µM	–	–
COc1cccc2c1C(=O)c1c(O)c3c(c(O)c1C2=O)C[C@@](O)(C(=O)CO)C[C@@H]3O[C@H]1C[C@H](N)[C@H](O)[C@H](C)O1 [Doxorubicin, reference compound]	7.67 µM	6.62 µM	–	–	IC50 (Calfthymus DNA): 31.3 µM
